Source: patent publication US9415084B2, “Treatment of leaky or damaged tight junctions and enhancing extracellular matrix” (Arch Biosurgery, Inc., priority 2007, dated 2016)
Several values for one entry are separate records, joined by “and”; a condition that tells them apart may be missing. Identical values can stand only once.

Columns and labels:
brain = details: rat, in vivo
Procedure: (§1) In the brain and liver of anesthetized adult rats 1% or 2% of NHS-1 was injected immediately after making a cut and the treatment site was sampled. Samples were fixed in a mixture of 2% para-formaldehyde and 2.5% glutaraldehyde in 0.1M PB for 4 hours. The samples were washed in 0.1M PB buffer 10 min×3 at 4° C. and embedded in 2% agar. Agar blocks were post fixed in 1% osmium tetroxide for 2 hrs at 4° C. and then washed in buffer for 10 min×3 at 4° C. The sample blocks were dehydrated in ethanol infiltrated and embedded in pure epon with Lynx EM tissue processor. Ultra-thin 70 nm sections were cut (Reichert-Jung ultra cut) and collected on #200 mesh grids. Sections and grids were stained with uranyl acetate and lead citrate and examined under Philip EM208S transmission electron microscope.

femoral artery = assay: Hemostasis in a high pressure femoral artery wound; format: in vivo, rat; details: two cases, data not shown
Procedure: Rats were placed on their backs and the hind limb was extended to expose the medial aspect of the thigh (FIG. 4b). The skin was removed and the overlying muscles were cut to expose the femoral artery and sciatic nerve. The femoral artery was cut to produce a high pressure bleeder. With a 27 gauge needle, 200 μl of 1% RADA16-I (SEQ ID NO: 60) (NHS-1) solution was applied over the site of injury. In two cases powder was applied to the injury site which also worked. (Data not shown and was not included in the analysis). Controls were treated with a combination of saline and pressure with a […]. All animals were sacrificed four hours after the experiment. The femoral artery of 14 adult rats was surgically exposed, transected and then treated with 200 μl of 1% solution of NHS-1 or iced saline and packing. The treated cases (n=10) took about 10 seconds to achieve hemostasis (FIG. 3a). The controls (n=4) continued to bleed more than 6 minutes. The difference in times to achieve complete hemostasis was highly significant (Student t test p<0.0001).

spinal cord = assay: Hemostasis in a spinal cord injury (T2 hemisection); format: in vivo, rat; details: adult rats, 20 μl of 1% solution
Procedure: Under an operating microscope, the second thoracic spinal cord segment (T2) was identified before performing a dorsal laminectomy in anesthetized adult rats. After opening the dura mater, a right hemisection was performed using a ceramic knife. Immediately after the cord hemisection 20 μl of 1% solution of RADA16-I (SEQ ID NO: 60) (NHS-1) was applied to the area of the cut for bleeding control. The controls received a saline treatment. The animals were allowed to survive for up to 8 weeks as part of another experiment. The spinal environment and the brain environment were investigated for similarities or differences. Secondary damage caused by surgery can be reduced by quickly bringing bleeding under control. After laminectomy and removal of the dura, the spinal cord was hemisected at T2, from the dorsal to ventral aspect and treated (N=5) with 20 μl of 1% NHS-1. […] In the saline controls (n=5) it took on average 163 seconds to stop bleeding (FIG. 3a).

liver [1] = assay: Hemostasis in liver transverse cut severing a branch of the portal vein; format: in vivo; details: rat liver transverse cut
Procedure: Rats were anesthetized and placed on their back and the abdomen was opened exposing the liver (FIG. 4c). The left lobe of the liver was cut using a scalpel in the rostral to caudal direction separating the two halves of the lobe in the sagittal cut. With a 27 gauge needle, 100 μl of 1% or 2%, of RADA16-I (SEQ ID NO: 60) (NHS-1), RADA-12 (NHS-2), or EAK-16 (TM-3) solution was applied to the site of injury. Livers of the controls were treated with saline or cauterized. Cauterization was performed using a thermal cautery device and was applied to entire surface of the injury. In another group of adult rats the same procedure was followed for the liver, which was cut transversely (FIG. 4d). With a 27 gauge needle, 400 μl of 1%, 2%, 3%, or 4% of NHS-1, or TM-3 solution was applied to the site of injury.
In the second experiment a major branch of the portal vein was severed while making a transverse cut in the left lobe to test NHS-1 in a high flow rate environment. Four concentrations of NHS-1 were tested (n=12) along with (n=4) control animals. 400 μl of 4% concentration NHS-1 was applied and bleeding stopped in 11 seconds. The test was successfully duplicated with 400 μl of both 3% and 2% NHS-1 solution; bleeding ceased in 10 and 10.3 seconds, respectively (FIG. 3d). When 400 μl of 1% NHS-1 was applied, bleeding continued for more than 60 seconds (FIG. 3d). The controls, however, bled for over 6 minutes. […] A significant difference was found between the NHS-1 treated and control groups using ANOVA.
The increased blood flow from the portal vein after making a transverse liver cut allowed the performance of another dose response experiment where various concentrations of NHS-1 (1% to 4%) and TM-3 (1% to 3%) could be compared with controls (FIG. 3d). All concentrations of NHS-1 were effective; however the higher blood pressure and flow rate after the transverse liver cut required a concentration of 2% or higher of NHS-1 to stop bleeding in less than 15 seconds.

brain, lung, or liver = assay: Examination of treated animals for thrombi; format: in vivo
liver [2] = details: rat, in vivo
Procedure: as §1
Still looking for mechanism clues as well as further understanding of the relationship of the NHS-1 blood/tissue interface in both the brain and liver, the treated tissues were examined under the transmission electron microscope (TEM), to determine how the red blood cells (RBCs), platelets, tissue and the ECM interact with the material.
A 1% NHS-1 solution was applied to a liver wound and immediately harvested the tissue.

liver [3] = assay: Hemostasis in liver 4 mm punch biopsy; format: in vivo; details: rats allowed to survive for up to 6 months after 3% treatment
Procedure: In another group of anesthetized adult rats, the liver was exposed and a 4 mm punch biopsy from the ventral aspect through the liver to the dorsal surface of the left liver lobe. The resulting core was removed from the liver and one of three treatments was applied. In one treatment, 200 μl of a 3% NHS-1 solution was applied to the site of injury. In one control saline was applied to the site of injury. In a second control, the injury surface was cauterized. The superficial material was then wiped clear of the injury site. […]
In the third experiment using adult rats (n=45) 4 mm holes were punched through the left lateral lobe and then the area was treated with 3% NHS-1, saline or heat cautery to bring about hemostasis (FIG. 3b). […] In the heat cautery control group (n=15) cessation of bleeding took more than 60 seconds, inclusive of applying heat to cauterize the inside surface of the punch. […] Using ANOVA there was a significant difference between the 3% NHS-1 treatment and the controls (p<0.0001).

n-RADARADARADARADA-c [NHS-1]
lysing of RBCs at the edges of the assembled material (brain): no evidence of lysing | platelet aggregation in the assembled material (brain): no evidence of platelet aggregation | hemostasis with powder applied to the injury site (femoral artery): also worked | time to hemostasis (spinal cord): 7.6 s | hemostasis after removing the excess assembled material (liver [1]; 2%, 3% and 4% concentration): complete hemostasis was maintained | time to hemostasis (liver [1]; 400 μl of 2% solution): 10.3 s and 10.3 ± 0.5 s | time to hemostasis (liver [1]; 400 μl of 3% solution): 10 s and 10.0 ± 1.0 s | time to hemostasis (liver [1]; 400 μl of 4% solution): 11 s and 11.0 ± 1.0 s | concentration required for complete hemostasis in less than 15 seconds (liver [1]; higher blood pressure/flow rate): ≥ 2% | hemostatic effectiveness over the concentrations tested (liver [1]; NHS-1 1% to 4%, TM-3 1% to 3%): effective | thrombi in the brain, lung, or liver (brain, lung, or liver): no evidence of thrombi | lysing of RBCs at the interface (liver [2]): no evidence of lysing | platelet aggregation at the blood/NHS-1 interface (liver [2]): no evidence of platelet aggregation | effect on the tissues in surviving animals (liver [3]): no detrimental effect on the tissues
